Results reported in PMC8113097 (Bioorganic & medicinal chemistry letters, 2021).

Key:
LDHA [1] = biological target: T1, LDHA (Homo sapiens, UniProt P00338); assay: LDHA enzyme inhibition; type: biochemical; details: 6g vs 6f
LDHB = LDHB (Homo sapiens, UniProt P07195); assay: LDHB enzyme inhibition; type: biochemical
LDHA [2] = biological target: T1, LDHA; assay: Binding to LDHA by SPR; details: for SPR τ: residence time on LDHA
Rat microsomal stability = type: in vitro ADME; details: microsomal data
PAMPA permeability = type: in vitro ADME
[3] = test system: A673 Ewing's Sarcoma line; assay: Inhibition of proliferation; type: cell-based; details: A673 cells

Chain of LDHB (P07195 whole entry): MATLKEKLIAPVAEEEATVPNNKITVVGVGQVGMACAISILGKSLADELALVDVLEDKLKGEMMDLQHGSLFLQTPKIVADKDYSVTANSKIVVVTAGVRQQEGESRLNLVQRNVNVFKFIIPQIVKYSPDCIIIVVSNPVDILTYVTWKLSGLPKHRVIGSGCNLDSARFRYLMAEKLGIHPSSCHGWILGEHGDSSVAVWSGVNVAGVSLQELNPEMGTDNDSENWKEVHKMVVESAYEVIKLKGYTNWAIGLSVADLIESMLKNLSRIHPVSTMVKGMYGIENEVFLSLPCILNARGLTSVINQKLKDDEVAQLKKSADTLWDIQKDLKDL

Structure (SMILES) | fold less potent in LDHA inhibition compared with 6f (LDHA [1]) | IC50 (LDHB) | binding to LDHA by SPR (in words) (LDHA [2]) | residence time / dissociation kinetics by SPR (in words) (LDHA [2]) | SPR τ (LDHA [2]) | metabolic stability (in words) (Rat microsomal stability) | PAMPA Perm (PAMPA permeability) | proliferation IC50 values (in words) [3]
NS(=O)(=O)c1ccc(Cc2cn(-c3nc(C(=O)O)cs3)nc2-c2cccc(OCc3cccnc3)c2)cc1 [6g] | ~ 3 fold |  |  |  |  |  |  | 
NS(=O)(=O)c1ccc(Cc2c(-c3ccc(F)c(OCC4CC4(F)F)c3)nn(-c3nc(C(=O)O)cs3)c2CC2CC2)cc1F (centres unmarked) [12b] |  | 3 nM | very tight binding | long residence times | 21,052 s | reasonable | 4.9 ×10⁻⁶ cm/s | 
NS(=O)(=O)c1ccc(Cc2c(-c3ccc(F)c(OC4CC4)c3)nn(-c3nc(C(=O)O)cs3)c2CC2CC2)cc1F [12e] |  | 3 nM | very tight binding | long residence times | 19,230 s | reasonable | 5.8 ×10⁻⁶ cm/s | 
NS(=O)(=O)c1ccc(Cc2c(-c3cccc(OCc4ccccc4)c3)nn(-c3nc(C(=O)O)cs3)c2CC2CC2)cc1F [12g] |  | 5 nM |  |  | 88,496 s |  | 1.1 ×10⁻⁶ cm/s | submicromolar
NS(=O)(=O)c1ccc(Cc2c(-c3ccc(F)c(OCc4cccc(F)c4)c3)nn(-c3nc(C(=O)O)cs3)c2CC2CC2)cc1F [12h] |  | 5 nM | very tight binding | long residence times | 13,568 s | quite poor | 2.9 ×10⁻⁶ cm/s | submicromolar
NS(=O)(=O)c1ccc(Cc2c(-c3ccc(F)c(OCc4ccc(C(F)(F)F)o4)c3)nn(-c3nc(C(=O)O)cs3)c2CC2CC2)cc1F [12j] |  | 6 nM | very tight binding | long residence times | 100,000 s |  | 12 ×10⁻⁶ cm/s | submicromolar
Cc1ccc(Oc2cc(-c3nn(-c4nc(C(=O)O)cs4)c(CC4CC4)c3Cc3ccc(S(N)(=O)=O)c(F)c3)ccc2F)cc1 [12p] |  | 19 nM | very tight binding | long residence times | 9,708 s | quite poor | 13 ×10⁻⁶ cm/s | submicromolar
NS(=O)(=O)c1ccc(Cc2c(-c3cccc(N4CCOCC4)c3)nn(-c3nc(C(=O)O)cs3)c2CC2CC2)cc1F [13a] |  | 8 nM |  | faster dissociation kinetics | 286 s |  | 1.6 ×10⁻⁶ cm/s | 
NS(=O)(=O)c1ccc(Cc2c(-c3cccc(Nc4ccccc4)c3)nn(-c3nc(C(=O)O)cs3)c2CC2CC2)cc1 [13h] |  | 1 nM |  | faster dissociation kinetics | 59 s |  | 4.4 ×10⁻⁶ cm/s | 
NS(=O)(=O)c1ccc(Cc2c(-c3ccc(F)c(NC(=O)c4ccccc4)c3)nn(-c3nc(C(=O)O)cs3)c2CC2CC2)cc1F [13i] |  | 2 nM |  |  |  | good stability | 6.4 ×10⁻⁶ cm/s | 
NS(=O)(=O)c1ccc(Cc2c(-c3ccc(F)c(C(=O)N4CCCC4)c3)nn(-c3nc(C(=O)O)cs3)c2CC2CC2)cc1F [14b] |  | 4 nM |  |  |  | good stability | 5.7 ×10⁻⁶ cm/s | 
NS(=O)(=O)c1ccc(Cc2c(-c3ccc(F)c(C(=O)NCc4ccccc4)c3)nn(-c3nc(C(=O)O)cs3)c2CC2CC2)cc1F [14d] |  | 2 nM |  |  |  |  | 8.7 ×10⁻⁶ cm/s | 
